Consider one molecule from patent publication US10884004B2, “Taggable fluorescent probe for calcium ion detection” (The University of Tokyo, priority 2016, dated 2021).

Structures are written as SMILES.

Assay [1] can be described thus: in vitro Ca2+ titration of the esterase hydrolysate of Compound 14 in Ca2+ buffer (spectrofluorophotometer). The note with it: hydrolysate obtained by esterase treatment; buffer with adjusted Ca2+ concentration (100 mM KCl, 30 mM MOPS). Type of assay: binding. On the procedure:
A 100 μL PBS solution containing Compound 14 (final concentration 80 μM), Pluronic F127 (0.2%), and Esterase Pseudomonas fluorescens (0.42 units/μL) (SIGMA) was prepared and hydrolysis reaction was carried out at 37° C. To follow the time course of the reaction, a part of the sample was taken during the reaction and the fluorescence intensity in 10 mM Ca^2+ buffer was measured with a spectrofluorophotometer (JASCO, FP-6500). When the fluorescence intensity ceased to change almost completely, the reaction was stopped to obtain a hydrolysate of Compound 14.
A free Ca^2+ concentration in a buffer containing 100 mM KCl and 30 mM 3-morpholinopropanesulfonic acid (MOPS) was adjusted using a Ca-ethylene glycol tetraacetic acid (EGTA) system (0-1 μM), a Ca-nitrilotriacetic acid (NTA) system (3.2 μM-794.3 μM), an unbuffered system (CaCl2) (3.2 mM-10 mM). The adjustment of free Ca^2+ concentration in the Ca-EGTA system or in the Ca-NTA system was carried out using the following formula (1). […]
In order to evaluate the chemical characteristics of the synthesized Compound 14, a hydrolysate was obtained by esterase treatment according to the above method, and the fluorescence intensity in a buffer in which the Ca^2+ concentration was adjusted was measured with a spectrofluorophotometer.

The nature of assay [2]: in situ calibration of the labeled probe in fixed, permeabilized HEK 293T/Halo-RimZF-CAAX. As to conditions: probe labeled on HEK 293T/Halo-RimZF-CAAX, 4% PFA fixed, 20 μM digitonin. In kind it is cell-based. On the procedure: (§1) HEK 293T cells were seeded in metal rings on a cover glass coated with 0.01% collagen and 25 μg/ml poly-L-lysine (nacalai tesque) 16 hours after gene transfer so that the number of cells per ring was 40,000 and cultured at 37° C. and a carbon dioxide concentration of 5%. Three and a half hours later, the extracellular fluid was replaced with Ringer's solution (5 mM HEPES, 150 mM NaCl, 4 mM KCl, 2 mM CaCl2, 1 mM MgCl2, 0.1% glucose, pH 7.2) containing a Ca^2+ probe (compound 14 or Calcium Green, AM (Invitrogen)) or a fluorescent ligand (halo TMR, halo Oregon) (final concentration 5 μM) and 0.02% Plulonic F127 and left to stand at room temperature for 30 minutes while being shielded from light. The cells labeled with compound 14 and the fluorescent ligand was then exchanged with serum-free DMEM, removal of probes that were liberated at 5% carbon dioxide concentration and 37° C. was carried out for 30 minutes, and the extracellular solution was exchanged again with Ringer's solution. […]
The labeled HEK 293T/Halo-RimZF-CAAX was immobilized with 4% PFA/PBS for 10 minutes, subjected to membrane permeabilization with 20 μM digitonin, and a change in fluorescence when the Ca^2+ concentration of the extracellular solution was changed was measured.
Next, Ca^2+ response characteristics of the labeled probe were evaluated by in situ calibration.

Assay [3] concerns HEK 293T/Halo-RimZF-CAAX. Put plainly: staining / localization in HEK 293T cells expressing HaloTag protein on the cell membrane. In kind it is cell-based. As to conditions: 5 μM probe, Ringer's solution, 30 minutes, room temperature. Here is the method: (§2) HEK 293T cells (GenHunter) were cultured in Dulbecco's Modified Eagle's Medium (DMEM) (Wako) containing 10% FBS, 4 mM L-glutamine (Wako), and 1 mM sodium pyruvate (Wako) at 37° C. in an atmosphere of 5% CO2. For nerve cells, a fetus was removed from Sprague-Dawley rat on day 21 of pregnancy under anesthesia, and the hippocampus immediately extracted from the fetal brain was digested with trypsin (Invitrogen) and DNase I (Sigma) to separate nerve cells. The nerve cells were cultured on a monolayer of glial cells in a Neurobasal A medium (Invitrogen) containing 2% B-27 supplement (Invitrogen), 1 mM sodium pyruvate (Wako), 1% glutamax (Invitrogen), 1% penicillin-streptomycin mixed solution (nacalai tesque) at 37° C. in an atmosphere of 5% CO2.
Next, a DNA fragment encoding HaloTag and a DNA fragment encoding RimZF were fused by PCR. At this time, a DNA fragment expressing a fusion protein of HaloTag, RimZF, and CAAX motif was obtained by adding a DNA sequence encoding a CAAX motif of the KRas gene (KMSKDGKKKKKKSKTKC-VIM) to the primer. […]
(§3) Fluorescence images were acquired using an inverted microscope (IX-71, Olympus), an EM-CCD camera (Andor, iXon), an objective lens ([…]), and a filter set for RFP. […]

In assay [4] the test system is Rat hippocampus-derived nerve cells. Put plainly: Ca2+ imaging on electrical stimulation of probe-labeled hippocampus-derived nerve cells. The note with it: electrical stimulation 10 times at 100 Hz; HaloTag fusion protein expressed in nerve cells. Type of assay: cell-based. On the procedure:
as §2
A DNA fragment obtained by fusing a sequence encoding a HaloTag protein in series on the C-terminal side of the DNA sequence encoding the vesicular membrane […] transporter (VGLUT1) was subcloned into a lentiviral vector (pLenti6PW) to prepare pLenti vglut1-chalo. […]
as §3

Assay [5] concerns HEK 293T/Halo-RimZF-CAAX. Put plainly: Ca2+ imaging on ionomycin stimulation of probe-labeled HEK 293T/Halo-RimZF-CAAX. Type of assay: cell-based. The note with it: ionomycin (10 μM); local Ca2+ signal on the cell membrane. On the procedure:
as §1, with “light.” for “light. The cells labeled with compound 14 and the fluorescent ligand was then exchanged with serum-free DMEM, removal of probes that were liberated at 5% carbon dioxide concentration and 37° C. was carried out for 30 minutes, and the extracellular solution was exchanged again with Ringer's solution.”
as §3
In addition, ionomycin was added to a probe-labeled HEK 293T/Halo-RimZF-CAAX in order to see the response characteristics to the Ca^2+ signal induced by the ionophore, and then changes with time of the fluorescence intensity were measured (FIG. 5). […]

For the molecule `CC(=O)OCOC(=O)COc1cc(NC(=O)c2ccc3c(c2)C(=O)OC32c3cc(Cl)c(OC(C)=O)cc3Oc3cc(N4CC(C(=O)NCCOCCOCCCCCCCl)C4)c(Cl)cc32)ccc1N(CC(=O)OCOC(C)=O)CC(=O)OCOC(C)=O` (centres unmarked) [Compound 14, bis(acetoxymethyl) 2,2′-((4-(3′-acetoxy-2′,7′-dichloro-6′-(3-((2-(2-((6-chlorohexyl)oxy)ethoxy)ethyl)carbamoyl)azetidin-1-yl)-3-oxo-3H-spiro[isobenzofuran-1,9′-xanthene]-5-carboxylic acid amido)-2-(2-(acetoxymethoxy)-2-oxoethoxy)phenyl)azanediyl) diacetate], the “Fmax/Fmin (fluorescence intensity of Ca2+-bound vs unbound probe)” value in assay [1] is on record as 10.8. In addition, in assay [2], the Fmax/Fmin came out at 4.7. Moreover, the “localization of fluorescence after staining” value with HEK 293T/Halo-RimZF-CAAX [3] is reported as “fluorescence localized on the cell membrane on which the HaloTag protein is expressed was observed”. The “Ca2+ signal change on electrical stimulation” value in assay [4] is on record as “a Ca^2+ signal change corresponding to the stimulus was observed”. The “change in fluorescence intensity due to ionomycin stimulation” value in the assay on HEK 293T/Halo-RimZF-CAAX [5] is given as “increased the fluorescence intensity”.
